According to patent US7875647B2, “Heteroaryl-pyrazole derivatives as cannabinoid CB1 receptor antagonists” (Green Cross Corporation, priority 2006, dated 2011):
Where two headings read alike, the source gives them in different places.

Molecular target: T1, Cannabinoid-1 receptor (CB1R) (Rattus norvegicus, UniProt P20272)
T1 construct: The tissue obtained from the brain of SD rats was homogenized; from tissue; host or cells: brain of SD rats (membrane pellet of the homogenate)
Assay: Cannabinoid-1 receptor (CB1R) binding affinity assay ([3H]CP-55940, rat CB-1 receptor binding protocol)
Settings: brain tissue of SD rats, [3H]CP-55940, 30° C. 60 min

T1 sequence (P20272 whole entry): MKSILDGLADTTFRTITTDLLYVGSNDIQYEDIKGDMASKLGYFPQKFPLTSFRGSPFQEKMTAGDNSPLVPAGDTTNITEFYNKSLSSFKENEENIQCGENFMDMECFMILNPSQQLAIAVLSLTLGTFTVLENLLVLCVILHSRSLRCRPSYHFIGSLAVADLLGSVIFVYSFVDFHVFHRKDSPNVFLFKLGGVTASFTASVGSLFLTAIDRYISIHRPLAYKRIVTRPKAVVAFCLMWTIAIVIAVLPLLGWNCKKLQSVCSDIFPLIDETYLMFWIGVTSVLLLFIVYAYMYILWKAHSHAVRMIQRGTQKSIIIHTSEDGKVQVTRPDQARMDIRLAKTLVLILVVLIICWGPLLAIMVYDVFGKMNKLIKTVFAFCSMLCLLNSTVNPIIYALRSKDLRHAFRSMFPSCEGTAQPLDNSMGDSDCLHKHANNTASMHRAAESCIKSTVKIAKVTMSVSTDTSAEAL

| Structure (SMILES) | IC50 (read-out: IC50) [nM] | IC50 (IC50(nM)) [nM] |
| --- | --- | --- |
| Cc1c(-c2nnc(C3(c4ccc(Cl)cc4)CCC3)s2)nn(-c2ccc(Cl)cc2Cl)c1-c1ccc(Cl)cc1 [Example 431, 2-(5-(4-chlorophenyl)-1-(2,4-dichlorophenyl)-4-methyl-1H-pyrazol-3-yl)-5-(1-(4-chlorophenyl)cyclobutyl)-1,3,4-thiadiazole] | 7.5 | – |
| CCc1c(-c2nnc(C3(c4ccc(Cl)cc4)CC3)s2)nn(-c2ccc(Cl)cc2Cl)c1-c1ccc(Br)cc1 [Example 432, 2-(5-(4-bromophenyl)-1-(2,4-dichlorophenyl)-4-ethyl-1H-pyrazol-3-yl)-5-(1-(4-chlorophenyl)cyclopropyl)-1,3,4-thiadiazole] | 7.98 | – |
| Cc1c(-c2nnc(C3(c4ccc(Cl)cc4)CC3)s2)nn(-c2ccccc2Cl)c1-c1ccc(Cl)cc1 [Example 433, 2-(1-(2-chlorophenyl)-5-(4-chlorophenyl)-4-methyl-1H-pyrazol-3-yl)-5-(1-(4-chlorophenyl)cyclopropyl)-1,3,4-thiadiazole] | 7.53 | – |
| CCC(C)c1nnc(-c2nn(-c3ccc(Cl)cc3Cl)c(-c3cccc(Cl)c3)c2C)s1 (centres unmarked) [Example 435, 2-sec-butyl-5-(5-(3-chlorophenyl)-1-(2,4-dichlorophenyl)-4-methyl-1H-pyrazol-3-yl)-1,3,4-thiadiazole] | 277 | – |
| Clc1ccc(-c2c(C3CC3)c(-c3nnc(C4CCCCC4)s3)nn2-c2ccc(Cl)cc2Cl)cc1 [Example 440, 2-(5-(4-chlorophenyl)-4-cyclopropyl-1-(2,4-dichlorophenyl)-1H-pyrazol-3-yl)-5-cyclohexyl-1,3,4-thiadiazole] | 11 | – |
| CC(C)(C)c1nnc(-c2nn(-c3ccc(Cl)cc3Cl)c(-c3ccc(Cl)cc3)c2C2CC2)s1 [Example 441, 2-tert-butyl-5-(5-(4-chlorophenyl)-4-cyclopropyl-1-(2,4-dichlorophenyl)-1H-pyrazol-3-yl)-1,3,4-thiadiazole] | – | 29.8 |
| Cc1c(-c2nnc(C3(c4ccc(Cl)cc4)CC3)s2)nn(-c2ccc(Cl)cc2)c1-c1ccc(Cl)cc1 [Example 447, 2-(1,5-bis(4-chlorophenyl)-4-methyl-1H-pyrazol-3-yl)-5-(1-(4-chlorophenyl)cyclopropyl)-1,3,4-thiadiazole] | 453 | – |
| CCC(C)(C)c1nnc(-c2nn(-c3ccc(Cl)cc3)c(-c3ccc(Cl)cc3)c2C)s1 [Example 448, 2-(1,5-bis(4-chlorophenyl)-4-methyl-1H-pyrazol-3-yl)-5-tert-pentyl-1,3,4-thiadiazole] | 199 | – |
| CCCOC(C)(C)c1nnc(-c2nn(-c3ccc(Cl)cc3Cl)c(-c3ccc(Cl)cc3)c2C)s1 [Example 449, 2-(5-(4-chlorophenyl)-1-(2,4-dichlorophenyl)-4-methyl-1H-pyrazol-3-yl)-5-(2-propoxypropan-2-yl)-1,3,4-thiadiazole] | 61.3 | – |
| CCc1c(-c2nnc(C3(c4ccccc4)CC3)s2)nn(-c2ccc(Cl)cc2Cl)c1-c1ccc(Br)cc1 [Example 450, 2-(5-(4-bromophenyl)-1-(2,4-dichlorophenyl)-4-ethyl-1H-pyrazol-3-yl)-5-(1-phenylcyclopropyl)-1,3,4-thiadiazole] | 7.42 | – |
| CCc1c(-c2nnc(C3CC4CCC3C4)s2)nn(-c2ccc(Cl)cc2Cl)c1-c1ccc(Br)cc1 (centres unmarked) [Example 452, 2-(bicyclo[2.2.1]heptan-2-yl)-5-(5-(4-bromophenyl)-1-(2,4-dichlorophenyl)-4-ethyl-1H-pyrazol-3-yl)-1,3,4-thiadiazole] | 54.1 | – |
| CCc1c(-c2nnc(C(C)C)s2)nn(-c2ccc(Cl)cc2Cl)c1-c1ccc(Br)cc1 [Example 453, 2-(5-(4-bromophenyl)-1-(2,4-dichlorophenyl)-4-ethyl-1H-pyrazol-3-yl)-5-isopropyl-1,3,4-thiadiazole] | 27.1 | – |
| CCc1c(-c2nnc(C3(C)CCCCC3)s2)nn(-c2ccc(Cl)cc2Cl)c1-c1ccc(Br)cc1 [Example 455, 2-(5-(4-bromophenyl)-1-(2,4-dichlorophenyl)-4-ethyl-1H-pyrazol-3-yl)-5-(1-methylcyclohexyl)-1,3,4-thiadiazole] | 14.5 | – |
| C=CCOC(C)(C)c1nnc(-c2nn(-c3ccc(Cl)cc3Cl)c(-c3ccc(Cl)cc3)c2C)s1 [Example 456, 2-(2-(allyloxy)propan-2-yl)-5-(5-(4-chlorophenyl)-1-(2,4-dichlorophenyl)-4-methyl-1H-pyrazol-3-yl)-1,3,4-thiadiazole] | 61 | – |
| CCCCOC(C)(C)c1nnc(-c2nn(-c3ccc(Cl)cc3Cl)c(-c3ccc(Cl)cc3)c2C)s1 [Example 457, 2-(2-butoxypropan-2-yl)-5-(5-(4-chlorophenyl)-1-(2,4-dichlorophenyl)-4-methyl-1H-pyrazol-3-yl)-1,3,4-thiadiazole] | 16.9 | – |
| Cc1c(-c2nnc(C3(c4ccc(Cl)cc4Cl)CC3)s2)nn(-c2ccc(Cl)cc2Cl)c1-c1ccc(Cl)cc1 [Example 459, 2-(5-(4-chlorophenyl)-1-(2,4-dichlorophenyl)-4-methyl-1H-pyrazol-3-yl)-5-(1-(2,4-dichlorophenyl)cyclopropyl)-1,3,4-thiadiazole] | 10.8 | – |
| Cc1ccc(C2(c3nnc(-c4nn(-c5ccc(Cl)cc5Cl)c(-c5ccc(Cl)cc5)c4C)s3)CC2)cc1 [Example 460, 2-(5-(4-chlorophenyl)-1-(2,4-dichlorophenyl)-4-methyl-1H-pyrazol-3-yl)-5-(1-p-tolylcyclopropyl)-1,3,4-thiadiazole] | 20.1 | – |
| CCCCCOC(C)(C)c1nnc(-c2nn(-c3ccc(Cl)cc3Cl)c(-c3ccc(Cl)cc3)c2C)s1 [Example 461, 2-(5-(4-chlorophenyl)-1-(2,4-dichlorophenyl)-4-methyl-1H-pyrazol-3-yl)-5-(2-(pentyloxy)propan-2-yl)-1,3,4-thiadiazole] | – | 13.7 |
| CCc1c(-c2nnc(C3(c4ccc(Cl)cc4)CC3)s2)nn(-c2ccc(Cl)cc2Cl)c1-c1ccc(Cl)cc1 [Example 463, 2-(5-(4-chlorophenyl)-1-(2,4-dichlorophenyl)-4-ethyl-1H-pyrazol-3-yl)-5-(1-(4-chlorophenyl)cyclopropyl)-1,3,4-thiadiazole] | 3.95 | – |
| Cc1c(-c2nnc(CC(F)(F)F)s2)nn(-c2ccc(Cl)cc2Cl)c1-c1ccc(Cl)cc1 [Example 466, 2-(5-(4-chlorophenyl)-1-(2,4-dichlorophenyl)-4-methyl-1H-pyrazol-3-yl)-5-(2,2,2-trifluoroethyl)-1,3,4-thiadiazole] | 102 | – |

Second part, led by results:

| IC50 (read-out: IC50) [nM] | Structure (SMILES) | IC50 (IC50(nM)) [nM] |
| --- | --- | --- |
| 172 | Cc1c(-c2nnc(C(C)(C)C)s2)nn(-c2ccc(Cl)cc2Cl)c1-c1cccc(Cl)c1 [Example 434, 2-tert-butyl-5-(5-(3-chlorophenyl)-1-(2,4-dichlorophenyl)-4-methyl-1H-pyrazol-3-yl)-1,3,4-thiadiazole] | – |
| 893 | Cc1c(-c2nnc(C3CCC3)s2)nn(-c2ccc(Cl)cc2Cl)c1-c1cccc(Cl)c1 [Example 436, 2-(5-(3-chlorophenyl)-1-(2,4-dichlorophenyl)-4-methyl-1H-pyrazol-3-yl)-5-cyclobutyl-1,3,4-thiadiazole] | – |
| 53.6 | CCOC(C)(C)c1nnc(-c2nn(-c3ccc(Cl)cc3Cl)c(-c3ccc(Cl)cc3)c2C)s1 [Example 437, 2-(5-(4-chlorophenyl)-1-(2,4-dichlorophenyl)-4-methyl-1H-pyrazol-3-yl)-5-(2-ethoxypropan-2-yl)-1,3,4-thiadiazole] | – |
| 263 | CCC(C)(C)c1nnc(-c2nn(-c3ccc(Cl)cc3Cl)c(-c3cccc(Cl)c3)c2C)s1 [Example 439, 2-(5-(3-Chlorophenyl)-1-(2,4-dichlorophenyl)-4-methyl-1H-pyrazol-3-yl)-5-tert-pentyl-1,3,4-thiadiazole] | – |
| 18 | Clc1ccc(-c2c(C3CC3)c(-c3nnc(C4CCC4)s3)nn2-c2ccc(Cl)cc2Cl)cc1 [Example 442, 2-(5-(4-chlorophenyl)-4-cyclopropyl-1-(2,4-dichlorophenyl)-1H-pyrazol-3-yl)-5-cyclobutyl-1,3,4-thiadiazole] | – |
| 292 | CCC(C)c1nnc(-c2nn(-c3ccc(Cl)cc3)c(-c3ccc(Cl)cc3)c2C)s1 (centres unmarked) [Example 444, 2-(1,5-bis(4-chlorophenyl)-4-methyl-1H-pyrazol-3-yl)-5-sec-butyl-1,3,4-thiadiazole] | – |
| 19.7 | CCc1c(-c2nnc(C(C)(C)CC)s2)nn(-c2ccc(Cl)cc2Cl)c1-c1ccc(Br)cc1 [Example 451, 2-(5-(4-bromophenyl)-1-(2,4-dichlorophenyl)-4-ethyl-1H-pyrazol-3-yl)-5-tert-pentyl-1,3,4-thiadiazole] | – |
| 23.1 | CCc1c(-c2nnc(C(CC)CC)s2)nn(-c2ccc(Cl)cc2Cl)c1-c1ccc(Br)cc1 [Example 454, 2-(5-(4-bromophenyl)-1-(2,4-dichlorophenyl)-4-ethyl-1H-pyrazol-3-yl)-5-(pentan-3-yl)-1,3,4-thiadiazole] | – |
| 25.8 | COc1ccc(C2(c3nnc(-c4nn(-c5ccc(Cl)cc5Cl)c(-c5ccc(Cl)cc5)c4C)s3)CC2)cc1 [Example 458, 2-(5-(4-chlorophenyl)-1-(2,4-dichlorophenyl)-4-methyl-1H-pyrazol-3-yl)-5-(1-(4-methoxyphenyl)cyclopropyl)-1,3,4-thiadiazole] | – |
| 36.5 | Cc1c(-c2nnc(C3(C(F)(F)F)CC3)s2)nn(-c2ccc(Cl)cc2Cl)c1-c1ccc(Cl)cc1 [Example 462, 2-(5-(4-chlorophenyl)-1-(2,4-dichlorophenyl)-4-methyl-1H-pyrazol-3-yl)-5-(1-(trifluoromethyl)cyclopropyl)-1,3,4-thiadiazole] | – |
| 4.41 | CCc1c(-c2nnc(C3(c4ccc(Cl)cc4)CC3)s2)nn(-c2ccccc2Cl)c1-c1ccc(Br)cc1 [Example 464, 2-(5-(4-bromophenyl)-1-(2-chlorophenyl)-4-ethyl-1H-pyrazol-3-yl)-5-(1-(4-chlorophenyl)cyclopropyl)-1,3,4-thiadiazole] | – |
| 33.9 | Cc1c(-c2nnc(C3(C(F)(F)F)CCC3)s2)nn(-c2ccc(Cl)cc2Cl)c1-c1ccc(Cl)cc1 [Example 465, 2-(5-(4-chlorophenyl)-1-(2,4-dichlorophenyl)-4-methyl-1H-pyrazol-3-yl)-5-(1-(trifluoromethyl)cyclobutyl)-1,3,4-thiadiazole] | – |
